In BindingDB's records for patent WO2022098970 (Eli Lilly, 2022):

Columns and labels:
Test in all cases: RET Enzyme Assay
[1] = molecular target: Proto-oncogene tyrosine-protein kinase receptor Ret [G810S] (Homo sapiens, UniProt P07949, G810S)
Experimental: (§1) Compounds of formulas I, la to lx, Ila to IIx, and/or Illa to IIIx are screened for their ability to inhibit wildtype, V804M, and G810S mutant RET kinase using CisBio s HTRF KinEASE -TK assay technology. N-terminal GST tagged recombinant human RET cytoplasmic domain (aa 658-end) from Eurofins (1.25 nM RET; Catalog No. 14-570M) or N-terminal GST tagged recombinant human V804M mutant RET cytoplasmic domain (aa 658-end) from Millipore (1.25 nM enzyme; Catalog No. 14-760) or N-Terminal GST-tagged recombinant human G810S (aa-658-end) (1.25 nM Enzyme; produced in insect cells) is incubated with 62.5 nM TK-substrate biotin (CisBio, part of Catalog No. 62TK0PEC) and 1 mM ATP along with test compound (0.4% final DMSO in the assay) in a IX Cisbuio enzymatic buffer consisting of […], 5 mM MgCh, 0.04% BSA and 0.05% Tween20 in a volume of 10 pL. Compounds are typically prepared in a threefold serial dilution in DMSO and added to the assay to give the appropriate final concentration. After a 40-60 min (40 min for V804M, 60 min for WT and G810S) incubation at 22 °C, the reaction is quenched by adding quench solution (10 pL) containing 7.8 nM Streptavidine-XL665 and 0.5X TK-ab-Cryptate in HTRF detection buffer (all from CisBio, part of Cat. No. 62TK0PEC). After a 60-80 min incubation (60 minutes for WT, 80 minutes for V804M and G810S) at 22 °C, the extent of reaction is determined using a PHERastar plate reader via HTRF detection at excitation/emission 337/665 nm. Percent of inhibition is calculated with 0% inhibition referring to control conditions containing no compound (0.4% DMSO only) and 100% inhibition represented by conditions containing no enzyme. The % inhibition values are fit to a 4 parameter logistic curve, and the determined IC5o value is defined as the estimated concentration of inhibitor at the inflexion point of the fitted curve.

[2] = molecular target: Proto-oncogene tyrosine-protein kinase receptor Ret (Homo sapiens, UniProt P07949)
Sequence of Proto-oncogene tyrosine-protein kinase receptor Ret (P07949 whole entry): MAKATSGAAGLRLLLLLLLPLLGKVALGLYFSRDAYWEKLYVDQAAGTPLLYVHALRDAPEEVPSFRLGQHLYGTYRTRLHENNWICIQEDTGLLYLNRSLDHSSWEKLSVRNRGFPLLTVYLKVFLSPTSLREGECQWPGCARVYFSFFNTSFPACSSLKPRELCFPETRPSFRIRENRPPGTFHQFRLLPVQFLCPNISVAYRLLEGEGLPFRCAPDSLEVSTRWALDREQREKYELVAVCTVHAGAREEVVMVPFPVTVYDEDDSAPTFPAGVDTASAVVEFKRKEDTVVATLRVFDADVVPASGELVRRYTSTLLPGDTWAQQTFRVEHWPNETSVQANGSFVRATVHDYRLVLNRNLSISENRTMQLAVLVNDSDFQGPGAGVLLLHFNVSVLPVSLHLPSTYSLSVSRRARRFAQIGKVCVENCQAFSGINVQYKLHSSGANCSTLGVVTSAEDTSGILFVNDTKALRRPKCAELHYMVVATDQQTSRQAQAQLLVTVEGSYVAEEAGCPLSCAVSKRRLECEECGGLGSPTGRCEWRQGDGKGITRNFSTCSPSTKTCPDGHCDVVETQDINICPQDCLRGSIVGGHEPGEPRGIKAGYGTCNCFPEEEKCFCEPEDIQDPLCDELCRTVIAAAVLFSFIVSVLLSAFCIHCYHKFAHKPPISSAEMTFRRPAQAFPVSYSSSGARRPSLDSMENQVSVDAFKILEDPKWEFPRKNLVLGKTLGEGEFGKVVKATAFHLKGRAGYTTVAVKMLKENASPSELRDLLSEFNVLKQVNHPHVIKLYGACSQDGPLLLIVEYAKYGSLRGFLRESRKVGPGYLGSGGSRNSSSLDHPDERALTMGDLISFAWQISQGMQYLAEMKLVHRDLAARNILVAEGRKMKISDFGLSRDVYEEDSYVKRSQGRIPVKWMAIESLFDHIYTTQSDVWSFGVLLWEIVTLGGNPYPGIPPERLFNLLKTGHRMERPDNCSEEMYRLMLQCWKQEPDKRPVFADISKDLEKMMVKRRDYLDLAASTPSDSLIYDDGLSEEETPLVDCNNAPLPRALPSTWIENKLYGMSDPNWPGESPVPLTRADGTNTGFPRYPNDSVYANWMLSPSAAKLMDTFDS
Experimental: as §1

[3] = molecular target: Proto-oncogene tyrosine-protein kinase receptor Ret [V804M] (Human, UniProt P07949, V804M)
Sequence of Proto-oncogene tyrosine-protein kinase receptor Ret [V804M] (P07949 29-1114 V804M limits assumed): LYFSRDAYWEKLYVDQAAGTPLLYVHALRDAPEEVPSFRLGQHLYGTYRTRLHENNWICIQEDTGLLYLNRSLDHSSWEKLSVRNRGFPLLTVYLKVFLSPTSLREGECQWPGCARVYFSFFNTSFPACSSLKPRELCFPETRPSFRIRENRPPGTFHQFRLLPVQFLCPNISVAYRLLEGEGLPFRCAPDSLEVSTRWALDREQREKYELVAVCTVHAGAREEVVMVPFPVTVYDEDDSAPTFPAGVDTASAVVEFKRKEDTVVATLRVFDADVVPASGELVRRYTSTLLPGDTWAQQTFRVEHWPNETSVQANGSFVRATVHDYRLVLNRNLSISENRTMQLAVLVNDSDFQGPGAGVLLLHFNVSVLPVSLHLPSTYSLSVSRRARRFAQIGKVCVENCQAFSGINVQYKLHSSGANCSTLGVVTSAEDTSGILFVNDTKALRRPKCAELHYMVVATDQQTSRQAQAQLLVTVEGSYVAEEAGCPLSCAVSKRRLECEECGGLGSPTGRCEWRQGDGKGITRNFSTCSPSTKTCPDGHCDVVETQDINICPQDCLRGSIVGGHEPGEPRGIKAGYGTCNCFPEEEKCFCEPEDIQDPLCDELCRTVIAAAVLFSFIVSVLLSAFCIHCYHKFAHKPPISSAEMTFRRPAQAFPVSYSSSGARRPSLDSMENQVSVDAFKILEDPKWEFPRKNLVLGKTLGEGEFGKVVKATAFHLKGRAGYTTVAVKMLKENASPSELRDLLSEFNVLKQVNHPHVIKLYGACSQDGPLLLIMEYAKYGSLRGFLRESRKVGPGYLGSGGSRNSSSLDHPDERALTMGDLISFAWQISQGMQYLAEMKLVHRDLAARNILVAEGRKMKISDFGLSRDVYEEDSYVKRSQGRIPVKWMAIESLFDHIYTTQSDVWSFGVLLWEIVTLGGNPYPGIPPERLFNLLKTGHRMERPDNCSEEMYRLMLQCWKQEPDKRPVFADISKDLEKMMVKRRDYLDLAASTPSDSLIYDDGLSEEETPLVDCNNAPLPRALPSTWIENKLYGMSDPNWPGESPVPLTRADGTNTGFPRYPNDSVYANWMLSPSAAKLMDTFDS
Experimental: as §1

Measured: IC50

Sequence of Proto-oncogene tyrosine-protein kinase receptor Ret [G810S] (P07949 29-1114 G810S limits assumed): as the sequence (P07949 29-1114 V804M limits assumed) above, with M776V, G782S counted along it

CC(C)n1nc(-c2ccc(CC(=O)Nc3cc(C(C)(C)C)on3)nc2)c(C(N)=O)c1N [WO2022098970, Example 318]
< 0.15 µM: all assays above

CC1(n2nc(-c3ccc(CC(=O)Nc4cc(-c5ccc(F)cc5Cl)no4)cc3)c(C(N)=O)c2N)CC1 [WO2022098970, Example 199]
< 0.15 µM: all assays above

CC(C)n1nc(-c2ccc(CC(=O)Nc3cc(C(C)(C)C(F)(F)F)no3)cc2)c(C(N)=O)c1N [WO2022098970, Example 2]
< 0.15 µM: all assays above

CC(C)n1nc(-c2ccc(CC(=O)Nc3cc(CC(C)(C)C)no3)c(F)c2F)c(C(N)=O)c1N [WO2022098970, Example 154]
< 0.15 µM: all assays above

CC(C)n1nc(-c2ccc(CC(=O)Nc3ccc(CN4CCN(C)CC4)c(C(F)(F)F)c3)nc2)c(C(N)=O)c1N [WO2022098970, Example 329]
< 0.15 µM: all assays above

CC(C)n1nc(-c2cnc(CC(=O)Nc3cc(C(C)(C)C)on3)cn2)c(C(N)=O)c1N [WO2022098970, Example 311]
< 0.15 µM: all assays above

CC(C)n1nc(-c2ccc(CC(=O)Nc3cccc(C(F)(F)F)c3)cn2)c(C(N)=O)c1N [WO2022098970, Example 292]
< 0.15 µM: all assays above

CC(C)n1nc(-c2ccc(CC(=O)Nc3cc(-c4ccc(Cl)c(F)c4Cl)no3)nc2)c(C(N)=O)c1N [WO2022098970, Example 330]
< 0.15 µM: all assays above

CCC(C)(C)c1cc(NC(=O)Cc2ccc(-c3nn(C(C)C)c(N)c3C(N)=O)nc2)on1 [WO2022098970, Example 303]
< 0.15 µM: all assays above

CC1(n2nc(-c3ccc(CC(=O)Nc4cc(C56CC(F)(C5)C6)no4)c(F)c3F)c(C(N)=O)c2N)CC1 [WO2022098970, Example 221]
< 0.15 µM: all assays above

CC(C)n1nc(-c2ccc(CC(=O)Nc3cc(-c4ccc(F)cc4Cl)no3)cn2)c(C(N)=O)c1N [WO2022098970, Example 302]
< 0.15 µM: all assays above

CC(C)n1nc(-c2ccc(CC(=O)Nc3cc(-c4ccc(Cl)cc4Cl)no3)nc2)c(C(N)=O)c1N [WO2022098970, Example 316]
< 0.15 µM: all assays above

CC(C)n1nc(-c2ccc(CC(=O)Nc3cc(-c4ccc(Cl)cc4F)no3)nc2)c(C(N)=O)c1N [WO2022098970, Example 321]
< 0.15 µM: all assays above

CC(C)n1nc(-c2ccc(CC(=O)NC3C=C(C(C)(C)C)SN3)cn2)c(C(N)=O)c1N (configuration not stated) [WO2022098970, Example 10]
< 0.15 µM: all assays above

CC(C)n1nc(-c2cnc(CC(=O)Nc3cc(-c4ccc(Cl)cc4Cl)no3)cn2)c(C(N)=O)c1N [WO2022098970, Example 308]
< 0.15 µM: all assays above

CC(C)n1nc(-c2ccc(CC(=O)Nc3cc(CC4(C)CC4)no3)cc2)c(C(N)=O)c1N [WO2022098970, Example 1]
< 0.15 µM: all assays above

CC(C)n1nc(-c2ccc(CC(=O)Nc3cc(C45CC(F)(C4)C5)no3)cc2)c(C(N)=O)c1N [WO2022098970, Example 4]
< 0.15 µM: all assays above

CC12CC(c3cc(NC(=O)Cc4ccc(-c5nn(C6(C)CC6)c(N)c5C(N)=O)c(F)c4F)on3)(C1)C2 [WO2022098970, Example 222]
< 0.15 µM: all assays above

CC(C)n1nc(-c2ccc(CC(=O)Nc3cc(C(C)(C)C(F)(F)F)n(C)n3)cc2)c(C(N)=O)c1N [WO2022098970, Example 8]
< 0.15 µM: all assays above

CC1(n2nc(-c3ccc(CC(=O)Nc4cc(C(C)(C)C(F)(F)F)no4)cc3)c(C(N)=O)c2N)CC1 [WO2022098970, Example 6]
< 0.15 µM: all assays above

CC(C)n1nc(-c2ccc(CC(=O)Nc3cc(C(C)(C)CC(F)(F)F)on3)nc2)c(C(N)=O)c1N [WO2022098970, Example 335]
< 0.15 µM: all assays above

CC(C)n1nc(-c2ccc(CC(=O)Nc3cc(-c4ccc(Cl)cc4Cl)no3)cn2)c(C(N)=O)c1N [WO2022098970, Example 300]
< 0.15 µM: all assays above

CC(C)n1nc(-c2ccc(CC(=O)Nc3cc(C45CC(C4)C5)no3)cc2)c(C(N)=O)c1N [WO2022098970, Example 5]
< 0.15 µM: all assays above

CC(C)n1nc(-c2ccc(CC(=O)Nc3cc(C4(C)CCCC4)no3)cc2)c(C(N)=O)c1N [WO2022098970, Example 3]
< 0.15 µM: all assays above

CC(C)n1nc(-c2ccc(CC(=O)Nc3cc(C(C)(C)C(F)(F)F)on3)cn2)c(C(N)=O)c1N [WO2022098970, Example 293]
< 0.15 µM: all assays above

CC(C)n1nc(-c2ccc(CC(=O)Nc3cc(-c4ccccc4Cl)no3)nc2)c(C(N)=O)c1N [WO2022098970, Example 317]
< 0.15 µM: all assays above

Cc1ccc(-c2cc(NC(=O)Cc3ccc(-c4nn(C(C)C)c(N)c4C(N)=O)cn3)on2)c(F)c1 [WO2022098970, Example 324]
< 0.15 µM: all assays above

CCC(C)(C)c1cc(NC(=O)Cc2cnc(-c3nn(C(C)C)c(N)c3C(N)=O)cn2)on1 [WO2022098970, Example 310]
< 0.15 µM: all assays above

CC(C)n1nc(-c2ccc(CC(=O)Nc3cc(C4(C)CCCC4)no3)cn2)c(C(N)=O)c1N [WO2022098970, Example 294]
< 0.15 µM: all assays above

CC(C)n1nc(-c2ccc(CC(=O)Nc3cc(C(C)(F)F)no3)cn2)c(C(N)=O)c1N [WO2022098970, Example 306]
< 0.15 µM: all assays above

CC(C)n1nc(-c2ccc(CC(=O)Nc3cc(C4CCCCC4)no3)cn2)c(C(N)=O)c1N [WO2022098970, Example 301]
< 0.15 µM: all assays above

CC(C)n1nc(-c2ccc(CC(=O)Nc3cc(C4(C)CC4)no3)cc2)c(C(N)=O)c1N [WO2022098970, Example 7]
< 0.15 µM: all assays above

CC(C)n1nc(-c2ccc(CC(=O)Nc3cc(-c4ccccc4)no3)cn2)c(C(N)=O)c1N [WO2022098970, Example 299]
< 0.15 µM: all assays above

CC(C)n1nc(-c2ccc(CC(=O)Nc3cc(C45CC(C(F)(F)F)(C4)C5)no3)cc2)c(C(N)=O)c1N [WO2022098970, Example 153]
< 0.15 µM: all assays above
